The nature of the series: co-administration of phenylethylamine with moiety/moieties that inhibit the enzyme MAO-B. It is filed as in vivo. Particulars: co-administered with a moiety/moieties that inhibited the effects of the enzyme MAO-B. From the text:
Therefore, the combination of phenylethylamine or derivative thereof and the MAO-B enzyme inhibitor may be formulated as a dietary supplement, other foodstuff, a pharmaceutical, a topical or transdermal compound or a vaccine. The Dietary Supplement Health and Education Act of 1994, commonly referred to as DSHEA, defines “dietary supplement” as any product (except tobacco) that contains at least one of the following: (1) a vitamin, (2) a mineral, (3) an herb or botanical, (4) an amino acid, (5) a dietary substance “for use to supplement the diet by increasing total dietary intake,” or (6) any concentrate, metabolite, constituent, extract, or combination of any of the aforementioned ingredients. Examples of dietary supplements include, but are not limited to nutritional products; sports performance products, including ergogenic sports performing products; weight loss products; and meal replacement products. Dietary supplements may exist in various forms, including, but not limited to tablets, capsules, caplets, powders, drinks including shakes, and solid food items including snack bars, etc. For purposes of the present invention, a foodstuff is defined as a substance that can be used or prepared for use as food or extracted from food.

Regarding `NCCc1ccccc1` [phenylethylamine, Phenethylamine], the “amount of phenethylamine absorbed into the bloodstream, cells and tissue” value is recorded as “increased amount”; the “amount of phenethylamine allowed to reach the brain and period of time per dose administered before it is metabolized” value is reported as “a greater amount of phenethylamine or a derivative thereof, is allowed to reach the brain for a greater period of time”.

Values taken from US20070190187A1, “FORMULATION FOR ENHANCED DELIVERY OF PHENETHYLAMINE” (priority 2006, published 2007).
